# Experimental data reported in ChEMBL document CHEMBL3885861, “Open TG-GATES”.
# Species on record: Rattus norvegicus
# Test: Open TG-GATES - Regimen: Daily Repeat
# Format: toxicity, organism-based, Sprague-Dawley
# Parameters: regimen Daily Repeat, gender Male, age 6 weeks
# Conditions: in vivo, iv, 3 mg/kg, route intravenous injection, dose level Middle; for KIDNEY_L / KIDNEY_R / KIDNEY_TOTAL: tissue Kidney; for LIVER: tissue Liver
# [1] = 72 h, tissue Plasma, time 3 day
# [2] = […], tissue Plasma, time 14 day
# [3] = […], tissue Plasma, time 28 day
sequence,measurement,setting,value
CARBOPLATIN,TERMINAL_BW,"72 h, time 3 day",220.6 g
same,APTT,"72 h, tissue Blood, time 3 day",24.1 s
same,Bas,"72 h, tissue Blood, time 3 day",0%
same,Eos,"72 h, tissue Blood, time 3 day",1.2%
same,Fbg,"72 h, tissue Blood, time 3 day",324.4 mg/dL
same,Ht,"72 h, tissue Blood, time 3 day",41.2%
same,Lym,"72 h, tissue Blood, time 3 day",74.6%
same,MCHC,"72 h, tissue Blood, time 3 day",32.6%
same,MCV,"72 h, tissue Blood, time 3 day",62.7 fL
same,Mono,"72 h, tissue Blood, time 3 day",3%
same,Neu,"72 h, tissue Blood, time 3 day",20.6%
same,PT,"72 h, tissue Blood, time 3 day",16.5 s
same,Plat,"72 h, tissue Blood, time 3 day",127.4 x10_4/uL
same,RBC,"72 h, tissue Blood, time 3 day",657.4 x10_4/ul
same,Ret,"72 h, tissue Blood, time 3 day",4%
same,WBC,"72 h, tissue Blood, time 3 day",89.9 x10_2/uL
same,KIDNEY_L,"72 h, time 3 day",0.9 g
same,KIDNEY_R,"72 h, time 3 day",0.9 g
same,KIDNEY_TOTAL,"72 h, time 3 day",1.9 g
same,LIVER,"72 h, time 3 day",9.8 g
same,ALP,[1],1530.2 IU/L
same,ALT,[1],43 IU/L
same,AST,[1],74.8 IU/L
same,CRE,[1],0.2 mg/dL
same,DBIL,[1],0 mg/dL
same,GLC,[1],173.6 mg/dL
same,IP,[1],7.1 mg/dL
same,K,[1],4.7 meq/L
same,LDH,[1],185.8 IU/L
same,PL,[1],129.2 mg/dL
same,RALB,[1],3.1 g/dL
same,TBIL,[1],0.004 mg/dL
same,TC,[1],65 mg/dL
same,TG,[1],104.6 mg/dL
same,TP,[1],5.5 g/dL
same,gamma-GTP,[1],1.4 IU/L
same,TERMINAL_BW,"[…], time 7 day",244.7 g
same,TERMINAL_BW,"[…], time 14 day",304.5 g
same,TERMINAL_BW,"[…], time 28 day",349.4 g
same,APTT,"[…], tissue Blood, time 7 day",23.6 s
same,Bas,"[…], tissue Blood, time 7 day",0%
same,Eos,"[…], tissue Blood, time 7 day",0.8%
same,Fbg,"[…], tissue Blood, time 7 day",296.2 mg/dL
same,MCHC,"[…], tissue Blood, time 7 day",32.4%
same,MCV,"[…], tissue Blood, time 7 day",62.2 fL
same,Mono,"[…], tissue Blood, time 7 day",2.4%
same,Neu,"[…], tissue Blood, time 7 day",16.6%
same,Plat,"[…], tissue Blood, time 7 day",130.4 x10_4/uL
same,RBC,"[…], tissue Blood, time 7 day",649.2 x10_4/ul
same,Ret,"[…], tissue Blood, time 7 day",4.6%
same,WBC,"[…], tissue Blood, time 7 day",97.3 x10_2/uL
same,APTT,"[…], tissue Blood, time 14 day",25.4 s
same,Bas,"[…], tissue Blood, time 14 day",0%
same,Eos,"[…], tissue Blood, time 14 day",0.6%
same,Fbg,"[…], tissue Blood, time 14 day",327 mg/dL
same,Hb,"[…], tissue Blood, time 14 day",14 g/dL
same,Ht,"[…], tissue Blood, time 14 day",41.1%
same,Lym,"[…], tissue Blood, time 14 day",86%
same,MCHC,"[…], tissue Blood, time 14 day",34%
same,MCV,"[…], tissue Blood, time 14 day",61.4 fL
same,Mono,"[…], tissue Blood, time 14 day",3.2%
same,Neu,"[…], tissue Blood, time 14 day",9.2%
same,Plat,"[…], tissue Blood, time 14 day",119.2 x10_4/uL
same,RBC,"[…], tissue Blood, time 14 day",670 x10_4/ul
same,Ret,"[…], tissue Blood, time 14 day",2.8%
same,WBC,"[…], tissue Blood, time 14 day",100.3 x10_2/uL
same,APTT,"[…], tissue Blood, time 28 day",26.7 s
same,Bas,"[…], tissue Blood, time 28 day",0%
same,Eos,"[…], tissue Blood, time 28 day",0.8%
same,Fbg,"[…], tissue Blood, time 28 day",332.2 mg/dL
same,Ht,"[…], tissue Blood, time 28 day",42.1%
same,Lym,"[…], tissue Blood, time 28 day",83%
same,MCH,"[…], tissue Blood, time 28 day",19 pg
same,MCHC,"[…], tissue Blood, time 28 day",35.1%
same,MCV,"[…], tissue Blood, time 28 day",54.2 fL
same,Mono,"[…], tissue Blood, time 28 day",2.8%
same,Plat,"[…], tissue Blood, time 28 day",118.9 x10_4/uL
same,RBC,"[…], tissue Blood, time 28 day",777.6 x10_4/ul
same,Ret,"[…], tissue Blood, time 28 day",1.9%
same,WBC,"[…], tissue Blood, time 28 day",87.9 x10_2/uL
same,KIDNEY_L,"[…], time 7 day",1.1 g
same,KIDNEY_R,"[…], time 7 day",1.1 g
same,KIDNEY_TOTAL,"[…], time 7 day",2.1 g
same,KIDNEY_L,"[…], time 14 day",1.3 g
same,KIDNEY_R,"[…], time 14 day",1.3 g
same,KIDNEY_TOTAL,"[…], time 14 day",2.5 g
same,KIDNEY_L,"[…], time 28 day",1.3 g
same,KIDNEY_R,"[…], time 28 day",1.3 g
same,KIDNEY_TOTAL,"[…], time 28 day",2.6 g
same,LIVER,"[…], time 7 day",11.2 g
same,LIVER,"[…], time 14 day",13.5 g
same,LIVER,"[…], time 28 day",13.9 g
same,ALP,"[…], tissue Plasma, time 7 day",1757.2 IU/L
same,ALT,"[…], tissue Plasma, time 7 day",40.6 IU/L
same,AST,"[…], tissue Plasma, time 7 day",82.6 IU/L
same,CRE,"[…], tissue Plasma, time 7 day",0.2 mg/dL
same,DBIL,"[…], tissue Plasma, time 7 day",0 mg/dL
same,GLC,"[…], tissue Plasma, time 7 day",169.6 mg/dL
same,IP,"[…], tissue Plasma, time 7 day",7 mg/dL
same,K,"[…], tissue Plasma, time 7 day",4.7 meq/L
same,LDH,"[…], tissue Plasma, time 7 day",186 IU/L
same,Na,"[…], tissue Plasma, time 7 day",140 meq/L
same,PL,"[…], tissue Plasma, time 7 day",143 mg/dL
same,RALB,"[…], tissue Plasma, time 7 day",3.1 g/dL
same,TBIL,"[…], tissue Plasma, time 7 day",0.006 mg/dL
same,TC,"[…], tissue Plasma, time 7 day",70.4 mg/dL
same,TG,"[…], tissue Plasma, time 7 day",110 mg/dL
same,TP,"[…], tissue Plasma, time 7 day",5.6 g/dL
same,gamma-GTP,"[…], tissue Plasma, time 7 day",1.6 IU/L
same,ALP,[2],1299.2 IU/L
same,ALT,[2],41.4 IU/L
same,AST,[2],84.2 IU/L
same,CRE,[2],0.2 mg/dL
same,Ca,[2],11 mg/dL
same,DBIL,[2],0 mg/dL
same,GLC,[2],170.4 mg/dL
same,IP,[2],6.8 mg/dL
same,K,[2],4.4 meq/L
same,LDH,[2],147 IU/L
same,PL,[2],148 mg/dL
same,RALB,[2],3.2 g/dL
same,TBIL,[2],0.006 mg/dL
same,TC,[2],74.2 mg/dL
same,TG,[2],131.2 mg/dL
same,TP,[2],6 g/dL
same,gamma-GTP,[2],3.4 IU/L
same,ALP,[3],1001.8 IU/L
same,ALT,[3],40.6 IU/L
same,AST,[3],78 IU/L
same,BUN,[3],18 mg/dL
same,CRE,[3],0.2 mg/dL
same,Ca,[3],11 mg/dL
same,DBIL,[3],0 mg/dL
same,GLC,[3],179.6 mg/dL
same,IP,[3],6.1 mg/dL
same,K,[3],4.2 meq/L
same,LDH,[3],131 IU/L
same,PL,[3],134.2 mg/dL
same,RALB,[3],3.2 g/dL
same,TBIL,[3],0.004 mg/dL
same,TC,[3],72.4 mg/dL
same,TG,[3],96 mg/dL
same,TP,[3],6.3 g/dL
